Our source for the IC50 and melting point values is patent publication US20080090834A1, “SELECTIVE AZOLE PDE10A INHIBITOR COMPOUNDS” (Pfizer Inc, priority 2006, published 2008).

Data set [1] has as its target T1, cloned rat PDE10A full-length enzyme (Rattus norvegicus, UniProt Q9QYJ6).
T1 construct: cloned rat PDE10A full-length enzyme grown in transfected Sf9 insect cells; made in house; host or cells: Sf9 insect cells
T1 sequence (Q9QYJ6 1-794): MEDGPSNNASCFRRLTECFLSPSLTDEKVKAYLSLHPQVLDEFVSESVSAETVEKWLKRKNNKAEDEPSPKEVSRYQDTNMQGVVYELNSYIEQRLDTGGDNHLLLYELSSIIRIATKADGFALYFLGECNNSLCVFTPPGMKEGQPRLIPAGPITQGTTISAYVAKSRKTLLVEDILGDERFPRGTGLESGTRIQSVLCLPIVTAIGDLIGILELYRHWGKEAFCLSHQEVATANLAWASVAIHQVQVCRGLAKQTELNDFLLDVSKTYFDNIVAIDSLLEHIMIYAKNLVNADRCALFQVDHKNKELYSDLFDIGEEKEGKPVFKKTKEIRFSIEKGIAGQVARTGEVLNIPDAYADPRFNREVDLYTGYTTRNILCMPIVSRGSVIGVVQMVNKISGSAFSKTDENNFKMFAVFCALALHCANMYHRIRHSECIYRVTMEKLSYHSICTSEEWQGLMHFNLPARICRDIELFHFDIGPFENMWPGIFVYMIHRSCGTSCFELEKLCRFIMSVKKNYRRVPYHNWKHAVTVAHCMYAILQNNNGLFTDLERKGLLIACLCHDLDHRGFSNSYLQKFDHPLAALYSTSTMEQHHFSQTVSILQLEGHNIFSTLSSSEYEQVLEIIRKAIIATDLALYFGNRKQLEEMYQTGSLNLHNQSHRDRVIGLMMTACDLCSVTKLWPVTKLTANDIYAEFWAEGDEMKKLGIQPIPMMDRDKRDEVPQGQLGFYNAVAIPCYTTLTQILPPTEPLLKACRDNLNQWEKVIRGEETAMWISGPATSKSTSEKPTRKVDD
Briefly: PDE10 enzyme inhibition, [3H]cAMP scintillation proximity assay. To be noted: rat PDE10A from Sf9 cells, 20 nM [3H]cAMP, SPA beads, 20 minute incubation at room temperature. It counts as biochemical. The method, boiled down: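 Full-length rat PDE10A from Sf9 cells hydrolysed 20 nM [3H]cAMP in 50 mM Tris, 8.3 mM MgCl2, pH 7.5, 2% DMSO, for 20 minutes at room temperature (<10% conversion). Yttrium silicate SPA beads with zinc sulphate stopped the reaction and captured [3H]AMP; 1 uM papaverine defined non-specific binding, vehicle defined total conversion.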
A general note: SPA uses beads or plates that emit light when radiolabelled molecules are held near them.

Structures are written as SMILES. Where a name gives a salt, the structure may show the parent alone. Some results are limits rather than exact numbers.

Take `c1ccc(-c2cn(-c3cccnc3)c(-c3ccc(-n4ccc5cccnc54)cc3)n2)nc1` [Example 7, 1-(4-(4-(pyridin-2-yl)-1-(pyridin-3-yl)-1H-imidazol-2-yl)phenyl)-1H-pyrrolo[2,3-b]pyridine]: the melting point (as a rule, the temperature of the solid-liquid transition) was in the range of 174 to 176 °C. Besides, in data set [1], the midpoint of inhibition, the IC50, lay at 6.84 nM.
The compound `c1cncc(-n2cc(-c3nccs3)nc2-c2ccc(-n3ccc4cccnc43)cc2)c1` [Example 23, 1-(4-(1-(pyridin-3-yl)-4-(thiazol-2-yl)-1H-imidazol-2-yl)phenyl)-1H-pyrrolo[2,3-b]pyridine] showed a melting point of 195 to 197 °C. In addition, the half-inhibitory concentration (IC50) – broadly, the concentration that inhibits the measured activity by half – in data set [1] worked out at 3.32 nM.
In the same order, the values of `COc1nc2cccnc2n1-c1ccc(-c2nc(-c3nccs3)cn2-c2ccc(C)nc2)cc1` [Example 81, 2-methoxy-3-(4-(1-(6-methylpyridin-3-yl)-4-(thiazol-2-yl)-1H-imidazol-2-yl)phenyl)-3H-imidazo[4,5-b]pyridine] are 190 to 192 °C and 0.33 nM.
For the compound `Cc1ccc(-n2cc(-c3cscn3)nc2-c2ccc(-n3c(C(F)(F)F)nc4cccnc43)cc2)cn1` [Example 99, 2-(trifluoromethyl)-3-(4-(1-(6-methylpyridin-3-yl)-4-(thiazol-4-yl)-1H-imidazol-2-yl)phenyl)-3H-imidazo[4,5-b]pyridine], the melting point lay in the range of 201 to 204 °C. Also, the 50% inhibitory concentration (IC50) in data set [1] amounted to 1.54 nM.
`COc1ccc(-c2[nH]c(-c3cccs3)nc2-c2ccc(-n3ccc4cccnc43)cc2)cc1` [Example 103] yielded an IC50 in data set [1] of 2.82 nM.
On the same count and under the same terms, the result for `On1c(-c2cccs2)nc(-c2ccc(-n3ccc4cccnc43)cc2)c1-c1cnccn1` [Example 104, 1-(4-(1-hydroxy-5-(pyrazin-2-yl)-2-(thiophen-2-yl)-1H-imidazol-4-yl)phenyl)-1H-pyrrolo[2,3-b]pyridine] reads < 2.45 nM.
For `c1csc(-c2nc(-c3ccc(-n4ccc5cccnc54)cc3)c(-c3cnccn3)[nH]2)c1` [Example 105], the IC50 in data set [1] was found to be 9.21 nM.
`COc1ccc(-c2[nH]c(-c3cccs3)nc2-c2ccc(-n3ccnc3)cc2)cc1` [Example 106, 1-(4-(5-(4-methoxyphenyl)-2-(thiophen-2-yl)-1H-imidazol-4-yl)phenyl)-1H-imidazole] registered a 50% inhibitory concentration (IC50) in data set [1] of 11 nM.
In data set [1], `CN1CCN(c2ccc(-c3[nH]c(-c4cncs4)nc3-c3ccc(-n4ccc5cccnc54)cc3)cn2)CC1` [Example 107] registered an IC50 of 2.26 nM.
The same measure, in the same setting: under `COc1ccc(-c2[nH]c(-c3cccs3)nc2-c2ccc(-n3cnc(-c4ccccc4)c3)cc2)cc1` [Example 108] stands 602 nM; under `Cc1cc(-c2nc(-c3cccs3)n(O)c2-c2cnccn2)ccc1-n1ccc2cccnc21` [Example 109, 1-(4-(1-hydroxy-5-(pyrazin-2-yl))-2-(thiophen-2-yl)-1H-imidazol-4-yl)-2-methylphenyl-1H-pyrrolo[2,3-b]pyridine], 18.4 nM; under `Cc1cc(-c2nc(-c3cccs3)n(O)c2-c2cnccn2)ccc1-n1ccc2cccnc21` [Example 110, 1-(4-(1-hydroxy-5-(pyrazin-2-yl)-2-(thiophen-2-yl)-1H-imidazol-4-yl)-2-methylphenyl)-1H-pyrrolo[2,3-b]pyridine], 36.6 nM.
The same measure, in the same setting: the result for `COc1ccc(-c2[nH]c(-c3cccs3)nc2-c2ccc(-n3cnc4ccccc43)cc2)cc1` [Example 111] reads 9.33 nM.
As to `Cc1cc(-c2nc(-c3cncs3)[nH]c2-c2cnccn2)ccc1-n1ccc2cccnc21` [Example 112], half-maximal inhibition in data set [1] (IC50) required 175 nM.
The same measure, in the same setting: the result for `Cc1cc(-c2nc(-c3cccs3)[nH]c2-c2cnccn2)ccc1-n1ccc2cccnc21` [Example 113] reads 47.4 nM.
The same measure, in the same setting: the result for `c1ccc(-c2nc(-c3cccnc3)c(-c3ccc(-n4ccc5cccnc54)cc3)[nH]2)nc1` [Example 114, 1-(4-(2-(pyridin-2-yl)-4-(pyridin-3-yl)-1H-imidazol-5-yl)phenyl)-1H-pyrrolo[2,3-b]pyridine] reads 18.6 nM; that for `c1ccc(-c2nc(-c3cccnc3)n(-c3ccc(-n4ccc5cccnc54)cc3)n2)nc1` [Example 115, 1-(4-(3-(pyridin-2-yl)-5-(pyridine-3-yl)-1H-1,2,4-triazol-1-yl)phenyl)-1H-pyrrolo[2,3-b]pyridine], 17.9 nM.
Still for that read-out and setting: the result for `COc1nc2cccnc2n1-c1ccc(-c2nc(-c3cncs3)cn2-c2ccc(C)nc2)cc1` [Example 116] reads 0.305 nM; that for `Cc1ccc(-n2cc(-c3cncs3)nc2-c2ccc(-n3c(C(F)(F)F)nc4cccnc43)cc2)cn1` [Example 117, 2-(trifluoromethyl)-3-(4-(1-(6-methylpyridin-3-yl)-4-(thiazol-5-yl)-1H-imidazol-2-yl)phenyl)-3H-imidazo[4,5-b]pyridine], 0.614 nM; that for `Cc1ccc(-n2cc(-c3nccs3)nc2-c2ccc(-n3c(=O)[nH]c4cccnc43)cc2)cn1` [Example 118, 3-(4-(1-(6-methylpyridin-3-yl)-4-(thiazol-2-yl)-1H-imidazol-2-yl)phenyl)-1H-imidazo[4,5-b]pyridin-2(3H)-one], 0.748 nM.
In data set [1], `c1ccc(-n2nc(-c3ccc(-n4ccc5cccnc54)cc3)c(-c3cccnc3)n2)nc1` [Example 119, 1-(4-(2-(pyridin-2-yl)-5-(pyridin-3-yl)-2H-1,2,3-triazol-4-yl)phenyl)-1H-pyrrolo[2,3-b]pyridine] came in with a concentration for half-maximal inhibition (IC50) of 134 nM.
The same measure, in the same setting: the result for `c1ccc(-n2cc(-c3cccnc3)c(-c3ccc(-n4ccc5cccnc54)cc3)n2)nc1` [Example 120, 1-(4-(1-(pyridin-2-yl)-4-(pyridin-3-yl)-1H-pyrazol-3-yl)phenyl)-1H-pyrrolo[2,3-b]pyridine] reads 42.9 nM; that for `c1ccc(-c2cc(-c3cccnc3)n(-c3ccc(-n4ccc5cccnc54)cc3)n2)nc1` [Example 121, 1-(4-(3-(pyridin-2-yl)-5-(pyridin-3-yl)-1H-pyrazol-1-yl)phenyl)-1H-pyrrolo)-2,3-b]pyridine bis-TFA salt], 9.29 nM.
In turn, `c1ccc(-c2cc(-c3cccnc3)nn2-c2ccc(-n3ccc4cccnc43)cc2)nc1` [Example 122, 1-(4-(5-(pyridin-2-yl)-3-(pyridin-3-yl)-1H-pyrazol-1-yl)phenyl)-1H-pyrrolo[2,3-b]pyridine TFA salt] showed a half-maximal inhibitory concentration (IC50) in data set [1] of 21.1 nM.
Still for that read-out and setting: the result for `c1ccc(-c2nc(-c3ccc(-n4ccc5cccnc54)cc3)n(-c3cccnc3)n2)nc1` [Preparation 123, 1-(4-(5-(pyridin-2-yl)-2-(pyridin-3-yl)-2H-1,2,4-triazol-3-yl)phenyl)-1H-pyrrolo[2,3-b]pyridine] reads 26.2 nM.
